From US11337976B2 (Plexxikon Inc., priority 2011, dated 2022)
Read-outs that look alike come from different tables or passages of the source.

How the values were obtained:
[1] = test system: COLO205 colon adenocarcinoma cells (B-Raf V600E mutation); test: COLO205 cell growth inhibition assay (ATPlite); format: cell-based, human
Experimental: Compounds are assessed in a variety of cell based assays. For example human cell lines with B-RafV600E mutation (A375 melanoma, SKMEL3 melanoma, and COLO205 colon adenocarcinoma), as well as tumorigenic cell lines with wild-type B-RAF (SW620 colon adenocarcinoma) or with Ras mutations (SKMEL2 melanoma and IPC298 melanoma).
On day 1, cells are counted, then centrifuged in a conical tube for 5 minutes at 1000 rpm.
On day 2, compound at a maximum concentration of 5 mM is serially diluted 1:3 (e.g. 10 μL with 30 μL dimethyl sulfoxide) for a total of 8 point titration with DMSO as a control. A 1 μL aliquot of each dilution point and control is added to 249 μL growth media and 50 μL is added to a well containing cells, providing 10 μM compound at the maximum concentration point. The cells are incubated for 3 days at 37° C. in 5% CO2.
ATPlite is added 25 μL to each well, shake for 2 minutes, and the cells are incubated at room temperature for 10 minutes, then luminescence is read on Safire reader. The measured luminescence correlates directly with cell number, such that the reading as a function of compound concentration is used to determine the IC50 value.

[2] = test system: A375 melanoma cells (B-Raf V600E mutation); test: A375 (A375_P-ERK) cell activity / cell growth inhibition assay; format: cell-based, human; conditions: A375 cells (text: A375_P-ERK)
B-Raf V600E = B-Raf V600E (Homo sapiens (Human), UniProt P15056, V600E); test: B-Raf V600E kinase activity biochemical assay (AlphaScreen, biotin-MEK1 substrate); conditions: 100 μM ATP
B-Raf V600E, sequence (P15056 whole entry V600E): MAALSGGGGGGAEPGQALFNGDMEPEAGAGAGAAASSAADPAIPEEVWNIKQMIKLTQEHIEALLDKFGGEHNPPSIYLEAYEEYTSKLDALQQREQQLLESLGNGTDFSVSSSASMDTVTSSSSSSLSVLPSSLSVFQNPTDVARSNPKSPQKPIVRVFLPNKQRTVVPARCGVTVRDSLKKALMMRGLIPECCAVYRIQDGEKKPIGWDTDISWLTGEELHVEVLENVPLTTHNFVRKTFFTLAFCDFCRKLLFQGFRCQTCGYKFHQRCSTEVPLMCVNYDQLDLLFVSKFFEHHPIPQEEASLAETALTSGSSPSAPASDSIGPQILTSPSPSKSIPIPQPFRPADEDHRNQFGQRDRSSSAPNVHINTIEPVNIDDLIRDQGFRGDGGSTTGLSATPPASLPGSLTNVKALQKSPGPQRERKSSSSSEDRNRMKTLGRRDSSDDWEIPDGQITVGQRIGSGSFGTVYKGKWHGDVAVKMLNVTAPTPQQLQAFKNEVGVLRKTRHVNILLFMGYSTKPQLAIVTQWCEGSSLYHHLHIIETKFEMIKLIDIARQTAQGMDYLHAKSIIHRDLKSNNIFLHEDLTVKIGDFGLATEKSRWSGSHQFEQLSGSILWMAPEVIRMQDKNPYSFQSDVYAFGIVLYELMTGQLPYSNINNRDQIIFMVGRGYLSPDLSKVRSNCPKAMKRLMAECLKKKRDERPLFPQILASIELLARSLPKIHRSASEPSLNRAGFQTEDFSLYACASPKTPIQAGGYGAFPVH
Experimental: Assays for biochemical and cell based activity are known in the art, for example, as described in PCT publication WO 2007/002433, the disclosure of which is hereby incorporated by reference as it relates to such assays. For example, the biochemical activity IC50 values are determined with respect to inhibition of B-Raf V600E kinase activity or p-Erk kinase activity, where inhibition of phosphorylation of a peptide substrate is measured as a function of compound concentration. Compounds to be tested are diluted in dimethyl sulfoxide to a concentration of 0.1 mM. These are serially diluted 15 μL into 30 μL of dimethyl sulfoxide seven times in 96 well plates for a total of 8 dilution points, and for each dilution point 1 μL is added to a well of an assay plate. Plates are prepared such that each well in a 384 well plate contains 1 μL of compound in 10 μL volume with 0.1 ng Raf enzyme (i.e. any of B-Raf, c-Raf-1 or B-Raf V600E, Upstate Biotechnology or preparead by methods known to one of skill in the art), 50 mM HEPES, pH 7.0, 50 mM NaCl, 2 mM MgCl2, 1 mM MnCl2, 0.01% Tween-20, 1 mM DTT, and 100 nM biotin-MEK1 as substrate. The reaction is started with addition of 10 μL of 200 μM ATP (i.e. final 100 μM ATP). […] The plates are incubated for 3 hours at room temperature and read on Envision reader (Perkin Elmer). […]

[3] = test system: IPC-298 cells, phosphorylated ERK; test: IPC-298_P-ERK cell activation assay (phosphorylated ERK, AlphaScreen); format: cell-based, human; conditions: P-ERK activation, one hour treatment
Experimental: B9 is a squamous cell carcinoma cell line expressing activated HRAS that was isolated from a DMBA/TPA-induced mouse model of skin carcinogenesis (Stoler, et al. The Journal of Cell Biology, 1993, 122(5), 1103-17). IPC-298 is a human melanoma cell line that expresses activated NRAS (Aubert, et al. International Journal of Cancer, 1993, 54(5), 784-92). To determine whether compounds induce phosphorylated ERK and MEK, cells are plated in a 96-well dish and treated with an 8-point titration of compound for one hour at 37° C. The media is then removed and the cells are incubated with lysis buffer containing protease and phosphatase inhibitors. Phosphorylated ERK and MEK in the resulting lysates is detected using AlphaScreen™ technology. To detect phosphorylated ERK, cell lysates are incubated with streptavidin-coated donor beads, anti-mouse IgG acceptor beads, a biotinylated anti-ERK1/2 rabbit antibody, and a mouse antibody that recognizes ERK1/2 only when it is phosphorylated on Thr202 and Tyr204. […] When ERK is phosphorylated, both antibodies can bind the same protein, bringing the donor and acceptor beads into close proximity, producing a signal that can be measured at 580 nm. MEK phosphorylation is detected using a similar approach, only with antibodies directed against total MEK1/2 and MEK1/2 that is phosphorylated at Ser217 and Ser221.

[4] = Homo sapiens, COLO 205, compounds known in the art
[5] = Homo sapiens, A-375, compounds known in the art

Structure (SMILES) | IC50 ([2]; Homo sapiens, A-375) [µM] | further results
COc1ncc(-c2cnc3[nH]cc(C(=O)c4c(F)ccc(NS(=O)(=O)c5cc(F)ccc5F)c4F)c3c2)cn1 |  | IC50 [1, 4]: < 1 µM; IC50 [2, 5]: < 0.5 µM
COc1ncc(-c2cnc3[nH]cc(C(=O)c4c(F)ccc(NS(=O)(=O)c5ccccc5F)c4F)c3c2)cn1 |  | IC50 [1, 4]: < 1 µM; IC50 [2, 5]: < 0.5 µM
CCCS(=O)(=O)Nc1ccc(F)c(C(=O)c2c[nH]c3ncc(Cl)cc23)c1F |  | IC50 [1, 4]: < 1 µM; IC50 [2, 5]: < 0.8 µM
O=C(c1c(F)ccc(NS(=O)(=O)N2CCCC2)c1F)c1c[nH]c2ncc(I)cc12 [P-0024] |  | IC50 [1]: > 1 µM; IC50 [2]: < 1 µM; EC50 [3]: > 10 µM
Cc1ccnc(-c2cnc3[nH]cc(C(=O)c4cccc(NS(=O)(=O)N5CCCC5)c4F)c3c2)n1 [P-0326, N-[2-fluoro-3-[5-(4-methylpyrimidin-2-yl)-1H-pyrrolo[2,3-b]pyridine-3-carbonyl]phenyl]pyrrolidine-1-sulfonamide] | > 1 | 
O=C(c1cccc(NS(=O)(=O)N2CC[C@@H](F)C2)c1F)c1c[nH]c2ncc(-c3cnc(C4CC4)nc3)cc12 [P-0327, (3R)—N-[3-[5-(2-cyclopropylpyrimidin-5-yl)-1H-pyrrolo[2,3-b]pyridine-3-carbonyl]-2-fluoro-phenyl]-3-fluoro-pyrrolidine-1-sulfonamide] | < 1 | 
CNS(=O)(=O)Nc1ccc(F)c(C(=O)c2c[nH]c3ncc(-c4cnc(C5CC5)nc4)cc23)c1F [P-0334, [5-(2-cyclopropylpyrimidin-5-yl)-1H-pyrrolo[2,3-b]pyridin-3-yl]-[2,6-difluoro-3-(methylsulfamoylamino)phenyl]methanone] | > 1 | 
CCNS(=O)(=O)Nc1ccc(F)c(C(=O)c2c[nH]c3ncc(-c4cnc(C5CC5)nc4)cc23)c1F [P-0335, [5-(2-cyclopropylpyrimidin-5-yl)-1H-pyrrolo[2,3-b]pyridin-3-yl]-[3-(ethylsulfamoylamino)-2,6-difluoro-phenyl]methanone] | < 1 | 
CCC(C)S(=O)(=O)Nc1ccc(F)c(C(=O)c2c[nH]c3ncc(-c4ccc(Cl)cc4)cc23)c1F (centres unmarked) [P-0337, N-[3-[5-(4-chlorophenyl)-1H-pyrrolo[2,3-b]pyridine-3-carbonyl]-2,4-difluoro-phenyl]butane-2-sulfonamide] | > 1 | 
O=C(c1c(F)ccc(NS(=O)(=O)N2CC[C@@H](F)C2)c1F)c1c[nH]c2ncc(-c3cnc(C4CC4)nc3)cc12 [P-0338, (3R)—N-[3-[5-(2-cyclopropylpyrimidin-5-yl)-1H-pyrrolo[2,3-b]pyridine-3-carbonyl]-2,4-difluoro-phenyl]-3-fluoro-pyrrolidine-1-sulfonamide] | < 1 | 
O=C(c1c(F)ccc(NS(=O)(=O)N2CCC(F)C2)c1F)c1c[nH]c2ncc(-c3cnc(C4CC4)nc3)cc12 (centres unmarked) [P-0339, N-[3-[5-(2-cyclopropylpyrimidin-5-yl)-1H-pyrrolo[2,3-b]pyridine-3-carbonyl]-2,4-difluoro-phenyl]-3-fluoro-pyrrolidine-1-sulfonamide] | < 1 | 
CN(CC(F)(F)F)S(=O)(=O)Nc1ccc(F)c(C(=O)c2c[nH]c3ncc(-c4cnc(C5CC5)nc4)cc23)c1F [P-0340, 5-(2-cyclopropylpyrimidin-5-yl)-3-[2,6-difluoro-3-[[methyl(2,2,2-trifluoroethyl)sulfamoyl]amino]benzoyl]-1H-pyrrolo[2,3-b]pyridine] | < 1 | 

Now from value to compound, other results behind:

IC50 ([2]; Homo sapiens, A-375) [µM] | Structure (SMILES) | further results
< 1 | CCN(C)S(=O)(=O)Nc1ccc(F)c(C(=O)c2c[nH]c3ncc(-c4ccc(Cl)cc4)cc23)c1F [P-0013] | IC50 (B-Raf V600E): < 0.1 µM
< 1 | CN(C)S(=O)(=O)Nc1cccc(C(=O)c2c[nH]c3ncc(-c4ccc(C#N)cc4)cc23)c1F [P-0027] | IC50 ([1]; Homo sapiens, COLO 205): < 1 µM
< 1 | CCN(C)S(=O)(=O)Nc1ccc(F)c(C(=O)c2c[nH]c3ncc(-c4cncs4)cc23)c1F [P-0315, 5-[3-[3-[[ethyl(methyl)sulfamoyl]amino]-2,6-difluoro-benzoyl]-1H-pyrrolo[2,3-b]pyridin-5-yl]thiazole] | 
< 1 | CCN(C)S(=O)(=O)Nc1ccc(F)c(C(=O)c2c[nH]c3ncc(-c4csc(C(C)(C)O)n4)cc23)c1F [P-0316, 4-[3-[3-[[ethyl(methyl)sulfamoyl]amino]-2,6-difluoro-benzoyl]-1H-pyrrolo[2,3-b]pyridin-5-yl]-2-(1-hydroxy-1-methyl-ethyl)thiazole] | 
< 1 | CCN(C)S(=O)(=O)Nc1ccc(F)c(C(=O)c2c[nH]c3ncc(-c4ccc(OC)nn4)cc23)c1F [P-0317, 3-[3-[[ethyl(methyl)sulfamoyl]amino]-2,6-difluoro-benzoyl]-5-(6-methoxypyridazin-3-yl)-1H-pyrrolo[2,3-b]pyridine] | 
< 1 | O=C(c1c(F)ccc(NS(=O)(=O)N2CCCC2)c1F)c1c[nH]c2ncc(-c3cc(N4CCOCC4)ncn3)cc12 [P-0318, N-[2,4-difluoro-3-[5-(6-morpholinopyrimidin-4-yl)-1H-pyrrolo[2,3-b]pyridine-3-carbonyl]phenyl]pyrrolidine-1-sulfonamide] | 
< 1 | O=C(c1cccc(NS(=O)(=O)N2CCCC2)c1F)c1c[nH]c2ncc(-c3cc(N4CCOCC4)ncn3)cc12 [P-0321, N-[2-fluoro-3-[5-(6-morpholinopyrimidin-4-yl)-1H-pyrrolo[2,3-b]pyridine-3-carbonyl]phenyl]pyrrolidine-1-sulfonamide] | 
< 1 | CN1CCN(c2cc(-c3cnc4[nH]cc(C(=O)c5cccc(NS(=O)(=O)N6CCCC6)c5F)c4c3)ncn2)CC1 [P-0322, N-[2-fluoro-3-[5-[6-(4-methylpiperazin-1-yl)pyrimidin-4-yl]-1H-pyrrolo[2,3-b]pyridine-3-carbonyl]phenyl]pyrrolidine-1-sulfonamide] | 
< 1 | CN1CCN(c2cccc(-c3cnc4[nH]cc(C(=O)c5cccc(NS(=O)(=O)N6CCCC6)c5F)c4c3)n2)CC1 [P-0324, N-[2-fluoro-3-[5-[6-(4-methylpiperazin-1-yl)-2-pyridyl]-1H-pyrrolo[2,3-b]pyridine-3-carbonyl]phenyl]pyrrolidine-1-sulfonamide] | 
< 1 | COc1ccnc(-c2cnc3[nH]cc(C(=O)c4cccc(NS(=O)(=O)N5CCCC5)c4F)c3c2)n1 [P-0325, N-[2-fluoro-3-[5-(4-methoxypyrimidin-2-yl)-1H-pyrrolo[2,3-b]pyridine-3-carbonyl]phenyl]pyrrolidine-1-sulfonamide] | 
